Laboratory results from PubChem BioAssay AID2401 (Southern Research Specialized Biocontainment Screening …, 2010).
Where “and” joins values, the source holds several entries; their conditions need not be identical. Equal values may be shown once.

tested on: S. Typhimurium GFP reporter counter-screen, fluorescence, 4 h; assay: S. Typhimurium nonspecific reporter signal inhibition – Salmonella Typhimurium, GFP fluorescence, counter-screen for PhoP regulon inhibitor project, dose response (AID 2401);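 further: S. typhimurium with Mg-insensitive nmpC-GFP reporter grown at 10 µM Mg2+; drop in reporter fluorescence reflects general culture growth inhibition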

**Q.** With `COc1c(N2CCNC(C)C2)c(F)cc2c(=O)c(C(=O)O)cn(C3CC3)c12` (centres undefined) as the compound, how does the IC50 read?
**A.** 1.05 µM

**Q.** How did the IC50 turn out when `Cc1ccc(Nc2cc(C)c3c(O)cccc3n2)cc1C` was run?
**A.** 75.3 µM

**Q.** Which IC50 does the source give for `CCCNC1=C(C)C(=O)C2=C(C1=O)C(COC(N)=O)[C@]1(OC)C3NC3CN21` (some centres undefined) here?
**A.** 128 µM

**Q.** With `Oc1c(Br)cc(Br)cc1C=NCc1ccccc1` as the compound, how does the IC50 read?
**A.** 99.2 µM

**Q.** How did the IC50 turn out when `Cc1ccc(C(=O)O)cc1N=Cc1cc(Br)cc(Br)c1O` was run?
**A.** 85.6 µM

**Q.** How did the IC50 turn out when `Oc1c(C(Nc2cccc(C(F)(F)F)c2)c2cccnc2)ccc2cccnc12` (centres undefined) was run?
**A.** 39.3 µM

**Q.** Which IC50 does the source give for `CS(=O)(=O)c1ccc([C@@H](O)[C@@H](CF)NC(=O)C(Cl)Cl)cc1` here?
**A.** 16.6 µM

**Q.** Which IC50 does the source give for `O=C(/C=C/c1ccccc1Cl)c1ccccc(=O)c1O` here?
**A.** 23.8 µM

**Q.** With `Cc1ccc(-c2c[n+](CC(=O)Nc3nc(-c4ccc(F)cc4)cs3)c3n2CCC3)cc1` as the compound, how does the IC50 read?
**A.** 42.3 µM

**Q.** With `COC(=O)C1C(O)C(C)C(O)C(C)/C=C\C=C(/C)C(=O)Nc2c(C)c(OC(C)=O)c3c(c2O)C(=O)C(C)=C2OCOC(=C23)/C(C)=C/C(C)(O)C(O)C(C)C1O` (centres undefined) as the compound, how does the IC50 read?
**A.** 22.2 µM

**Q.** With `CCCCCCCCCCOC(=O)Cn1c(COc2ccc(Cl)cc2)[n+](C)c2ccccc21` as the compound, how does the IC50 read?
**A.** 19.5 µM

**Q.** Which IC50 does the source give for `Nc1cccc2nc3ccccc3cc12` here?
**A.** 26.7 µM

**Q.** For `OCc1ccc(O)c2ncccc12`, which IC50 is on record?
**A.** 123 µM

**Q.** With `CCCCCc1ccc(OCCOCCn2c[n+](C)c3ccccc32)c(CCCCC)c1` as the compound, how does the IC50 read?
**A.** 63.2 µM

**Q.** How did the IC50 turn out when `C/C(=N\NC(=O)c1cc2ccccc2cc1O)c1ccccn1` was run?
**A.** 17 µM

**Q.** How did the IC50 turn out when `c1ccc(-c2nnc(-c3ccccn3)nc2NC2CCCCC2)cc1` was run?
**A.** 78.3 µM

**Q.** `C/C(CC(=O)Nc1ccc(Cl)c(C(F)(F)F)c1)=N\NC(=O)c1ccccc1O` was tested. Which IC50 did it give?
**A.** 117 µM

**Q.** With `Oc1c(C(c2ccccn2)N2CCOCC2)ccc2cccnc12` (centres undefined) as the compound, how does the IC50 read?
**A.** 88.6 µM

**Q.** `CCN(CC)CCOc1ccc2c(c1)C(=NNC(=O)c1ccccn1)c1cc(OCCN(CC)CC)ccc1-2` was tested. Which IC50 did it give?
**A.** 38.1 µM

**Q.** How did the IC50 turn out when `N#CC1=C(S)N(c2ccccc2)C(c2ccc(-c3ccccc3Cl)o2)NC1=O` (centres undefined) was run?
**A.** 144 µM

**Q.** With `CCn1nc(C(=O)O)c(=O)c2cc3c(cc21)OCO3` as the compound, how does the IC50 read?
**A.** 49 µM

**Q.** How did the IC50 turn out when `CCCCOc1ccc(CSC(=N)N)cc1[N+](=O)[O-]` was run?
**A.** 115 µM

**Q.** For `CNc1nc(NCc2ccccc2)c2ccccc2n1`, which IC50 is on record?
**A.** 79.3 µM

**Q.** How did the IC50 turn out when `Nc1ncn(C2O[C@H](CO)[C@@H](O)[C@H]2O)c(=O)n1` (some centres undefined) was run?
**A.** 30.8 µM

**Q.** With `Cc1ccc(C(=O)N/N=C/c2cc(Br)ccc2O)cn1` as the compound, how does the IC50 read?
**A.** 55.7 µM

**Q.** With `CN1CCN(c2c(F)cc3c(=O)c(C(=O)O)cn4c3c2SCC4)CC1` as the compound, how does the IC50 read?
**A.** 8.06 µM and 8.09 µM

**Q.** `CO/N=C(/C(=O)N[C@@H]1C(=O)N2C(C(=O)O)=CCS[C@H]12)c1cnc(N)s1` was tested. Which IC50 did it give?
**A.** 18.4 µM

**Q.** With `CCCCCC(CC(=O)NO)C(=O)NC(C(=O)N1CCCC1CO)C(C)C` (centres undefined) as the compound, how does the IC50 read?
**A.** 144 µM

**Q.** With `O=C(N/N=C/c1cc(Cl)ccc1O)c1ccncc1` as the compound, how does the IC50 read?
**A.** 20.6 µM

**Q.** Which IC50 does the source give for `Cc1nnc(N/N=C/c2ccccn2)[nH]c1=O` here?
**A.** 18 µM

**Q.** How did the IC50 turn out when `S=c1nc(C2CCCCC2)[nH][nH]1` was run?
**A.** 99 µM

**Q.** For `CC(C)NC1=C(Cl)C(=O)c2ccccc2C1=O`, which IC50 is on record?
**A.** 38.3 µM

**Q.** How did the IC50 turn out when `NC1CCN(c2c(F)cc3c(=O)c(C(=O)O)cn(C4CC4)c3c2Cl)C1` (centres undefined) was run?
**A.** < 0.23 µM

**Q.** How did the IC50 turn out when `O=[N+]([O-])c1cc(/C=N/Nc2nc3ccccc3[nH]2)c(O)cc1O` was run?
**A.** 18.2 µM

**Q.** `CCc1ccc(-c2nn(-c3ccccc3)cc2CSC(=N)N)cc1` was tested. Which IC50 did it give?
**A.** 53.1 µM

**Q.** For `COc1cc(C)c(Cc2cnc(N)nc2N)cc1OC`, which IC50 is on record?
**A.** 2.03 µM

**Q.** For `CN1CCN(C(c2ccc(Br)cc2)c2cc(Cl)c3cccnc3c2O)CC1` (centres undefined), which IC50 is on record?
**A.** 19.8 µM

**Q.** Which IC50 does the source give for `C[CH2][Hg][S]c1ccccc1C(=O)O` here?
**A.** 54.9 µM

**Q.** `CCOC(=O)N1CCN(C(c2cccnc2)c2ccc3cccnc3c2O)CC1` (centres undefined) was tested. Which IC50 did it give?
**A.** 41.8 µM

**Q.** With `Cc1ccccc1OCc1n(CC(=O)OC2CC(C)CCC2C(C)C)c2ccccc2[n+]1C` (centres undefined) as the compound, how does the IC50 read?
**A.** 65.6 µM

**Q.** With `CCCNC(=O)c1cn(CC)c2cc(N3CCN(C)CC3)c(F)cc2c1=O` as the compound, how does the IC50 read?
**A.** 48.2 µM

**Q.** For `Cc1ccc(C(C[N+](=O)[O-])c2c(-c3ccccc3O)[nH][nH]c2=O)cc1` (centres undefined), which IC50 is on record?
**A.** 14.9 µM

**Q.** Which IC50 does the source give for `C/C(=C\C(=O)OCCCCCCCCC(=O)O)C[C@@H]1OC[C@H](C[C@@H]2O[C@H]2[C@@H](C)[C@H](C)O)[C@@H](O)[C@H]1O` here?
**A.** 9.67 µM

**Q.** Which IC50 does the source give for `CO[C@H]1C=CO[C@@]2(C)Oc3c(C)c(O)c4c(O)c(c(C=NN5CCN(C)CC5)c(O)c4c3C2=O)NC(=O)C(C)=CC=C[C@H](C)[C@H](O)[C@@H](C)[C@@H](O)[C@@H](C)[C@H](OC(C)=O)[C@@H]1C` here?
**A.** 3.44 µM

**Q.** Which IC50 does the source give for `O=[N+]([O-])c1cc(F)c2cccnc2c1O` here?
**A.** 9.05 µM

**Q.** Which IC50 does the source give for `C(=N\Nc1ccccn1)/c1cccnc1` here?
**A.** 21.5 µM

**Q.** Which IC50 does the source give for `CN1CCN(C(c2ccc(C(F)(F)F)cc2)c2cc(Cl)c3cccnc3c2O)CC1` (centres undefined) here?
**A.** 21 µM

**Q.** With `CCCCCCCCCCOC(=O)Cn1c(COc2ccc(C)cc2)[n+](C)c2ccccc21` as the compound, how does the IC50 read?
**A.** 19.8 µM

**Q.** With `Cc1cc(NC(c2cccnc2)c2ccc3cccnc3c2O)no1` (centres undefined) as the compound, how does the IC50 read?
**A.** 105 µM

**Q.** `CCN(CC(=O)NC(C)(C)C)C(=O)COc1c(Cl)cc(Cl)c2ccc(C)nc12` was tested. Which IC50 did it give?
**A.** 82.4 µM

**Q.** `CC[n+]1c(/C=C/C=C/c2ccc(N(C)C)cc2)sc2ccccc21` was tested. Which IC50 did it give?
**A.** 72.9 µM

**Q.** Which IC50 does the source give for `CCC(C)NC(=O)c1cn(CC)c2cc(N3CCN(C)CC3)c(F)cc2c1=O` (centres undefined) here?
**A.** 70.6 µM

**Q.** With `Cc1cc2nc3ccc(=[N+](C)C)cc-3sc2cc1N` as the compound, how does the IC50 read?
**A.** 36.5 µM

**Q.** `COc1cnc(-c2ccccn2)[nH]c1=O` was tested. Which IC50 did it give?
**A.** 35.3 µM
